Patent publication US8278072B1, “Method for synthesis of sialylated products using reversible sialylation” (Health Research, Inc., priority 2007, dated 2012)

Key:
Assay type in all cases: biochemical
[1] = target: T1, ST3Gal III (Cloned rat liver) (Rattus norvegicus, UniProt Q02734); experiment: Forward (direct) sialyltransferase activity, ST3Gal-III; settings: donor CMP-[9-3H]NeuAc, acceptor 4-O-MeGalβ1,4GlcNAcβ-O-Bn
T1 construct: purchased Calbiochem
T1 sequence (Q02734 1-374): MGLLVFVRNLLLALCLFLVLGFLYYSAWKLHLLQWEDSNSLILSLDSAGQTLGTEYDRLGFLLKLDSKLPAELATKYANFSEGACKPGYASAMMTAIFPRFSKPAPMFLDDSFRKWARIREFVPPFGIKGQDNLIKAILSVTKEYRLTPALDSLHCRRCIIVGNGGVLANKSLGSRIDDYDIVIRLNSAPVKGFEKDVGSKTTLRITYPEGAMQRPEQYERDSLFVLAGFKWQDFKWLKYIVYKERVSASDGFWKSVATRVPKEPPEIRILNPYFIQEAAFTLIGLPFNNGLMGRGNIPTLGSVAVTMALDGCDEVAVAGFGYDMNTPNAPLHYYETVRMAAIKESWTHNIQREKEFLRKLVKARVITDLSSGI
Description: (§1) FIG. 5. Effect of 5′-nucleotides on direct sialyltransferase activity (panel a) and reverse sialylation (panel b). a. Varying concentrations of 5′-CDP or 5′-CMP were added to 100 mM acceptor (specified below), 0.15 mM CMP-[9-^3H]NeuAc and either ST3Gal-II (0.2 mU), ST3Gal-III (0.5 mU) or ST6Gal-I (0.2 mU) for 4 h at 37° C. Products were separated using Sep-Pak C18 method. ST3Gal-III activity was measured using acceptor 4-O-MeGalβ1,4GlcNAcβ-O-Bn in the presence of 5′-CDP (●) and 5′-CMP (◯). ST6Gal-I activity was measured using Gal β1,4GlcNAcβ-O-Bn in the presence of 5′-CDP (▴) and 5′-CMP (Δ). ST3Gal-II using D-Fucβ1,3GalNAcα-O-Bn in the presence of 5′-CDP (▪) and 5′-CMP (□). b) Reverse sialylation by ST3Gal-II was measured in reaction mixtures containing 0.2 mM [9-^3H] [3], 7 mM 5′-CMP, ST3Gal-II (2 mU), D-Fucβ1,3GalNAcα-OBn (3.0 mM) and varying doses of either 5′-CDP (▴), 5′-UMP (◯) or 2-deoxy 5′-CMP (●) for 4 hours at 37° C. Reaction product ([9-^3H]NeuAcα2,3DFucβ1,3 GalNAcα-O-Bn) was isolated using Sep-Pak C18 method. In some runs, where was absent, the amount of CMP-NeuAc produced was quantified using the Dowex-1 Formate method in the presence of varying doses of 5′-CDP (▪).
(§2) Besides pH other distinctions were also observed between forward and reverse sialylation. In this regard, citrate ions tended to inhibit forward sialylation but not reverse sialylation activity (Table V). For these studies, the effect of citrate on the forward sialylation activity of ST3Gal-I, ST3Gal-II, ST3Gal-III and ST6Gal-I was examined. Reverse sialylation activity of ST3Gal-II was also measured in terms of: i) the formation of CMP-NeuAc from 5′-CMP; and ii) the transfer of NeuAc from this newly synthesized CMP-NeuAc to another O-glycan. From the data (Table V), it is evident that citrate inhibits the direct sialylation activity of all the enzymes mentioned above. However, both the synthesis of CMP-[9-^3H]NeuAc from 5′-CMP as well as the synthesis of [9-^3H]NeuAcα2,3D-Fucβ1,3 GalNAcα-O-Bn using the newly formed CMP-[9-^3H]NeuAc through reverse sialylation of ST3Gal-II was not inhibited by citrate.
(§3) The effect of 5′-nucleotides on forward sialylation (FIG. 5a) and reverse sialylation (FIG. 5b) were examined. […] The overall formation of [9-^3H]NeuAcα2,3D-Fucβ1,3 GalNAcα-O-Bn by the two-step reverse sialylation process, however, was inhibited by 5′-CDP and this is consistent with the finding that 5′-CDP inhibits forward sialylation in the second step.

[2] = target: T2, ST6Gal I (Cloned rat liver) (Rattus norvegicus, UniProt P13721); experiment: Forward (direct) sialyltransferase activity, ST6Gal-I; settings: donor CMP-[9-3H]NeuAc, acceptor Galβ1,4GlcNAcβ-O-Bn
T2 construct: purchased Calbiochem
T2 sequence (P13721 1-403): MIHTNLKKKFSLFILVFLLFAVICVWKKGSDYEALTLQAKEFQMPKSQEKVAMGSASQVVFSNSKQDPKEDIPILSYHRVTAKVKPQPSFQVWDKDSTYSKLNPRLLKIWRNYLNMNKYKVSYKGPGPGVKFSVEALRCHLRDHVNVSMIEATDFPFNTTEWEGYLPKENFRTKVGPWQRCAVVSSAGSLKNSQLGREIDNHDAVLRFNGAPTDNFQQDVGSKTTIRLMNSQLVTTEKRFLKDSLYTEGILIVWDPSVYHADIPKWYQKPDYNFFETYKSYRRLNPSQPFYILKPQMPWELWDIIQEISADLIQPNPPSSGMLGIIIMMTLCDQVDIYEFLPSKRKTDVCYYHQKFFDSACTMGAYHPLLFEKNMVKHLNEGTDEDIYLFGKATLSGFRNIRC
Description: as §1, §2, §3

[3] = target: T3, ST3Gal II (Cloned rat liver) (Rattus norvegicus, UniProt Q11205); experiment: Forward (direct) sialyltransferase activity, ST3Gal-II; settings: donor CMP-[9-3H]NeuAc, acceptor [5], varying nucleotide concentrations
T3 construct: purchased Calbiochem
T3 sequence (Q11205 1-350): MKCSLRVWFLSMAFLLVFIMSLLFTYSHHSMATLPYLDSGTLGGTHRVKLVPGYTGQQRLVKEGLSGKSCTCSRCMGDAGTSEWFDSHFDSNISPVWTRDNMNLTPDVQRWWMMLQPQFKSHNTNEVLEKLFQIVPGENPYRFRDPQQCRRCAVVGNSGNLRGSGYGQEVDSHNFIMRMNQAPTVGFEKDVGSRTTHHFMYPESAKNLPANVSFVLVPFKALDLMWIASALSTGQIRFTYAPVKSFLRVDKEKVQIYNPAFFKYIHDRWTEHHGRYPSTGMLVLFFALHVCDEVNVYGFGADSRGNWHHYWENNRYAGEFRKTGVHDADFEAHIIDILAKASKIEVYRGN
Description: as §1, §2, §3

Nc1ccn([C@@H]2O[C@H](COP(=O)(O)OP(=O)(O)O)[C@@H](O)[C@H]2O)c(=O)n1 [5′-CDP]
inhibited: Effect on forward sialylation activity of ST3Gal-III [1] | Effect on forward sialylation activity of ST6Gal-I [2] | Effect on forward sialylation activity of ST3Gal-II [3]

Nc1ccn([C@@H]2O[C@H](COP(=O)(O)O)[C@@H](O)[C@H]2O)c(=O)n1 [5′-CMP, Cytidine 5′-monophosphate]
inhibited: Effect on forward sialylation activity of ST3Gal-III [1] | Effect on forward sialylation activity of ST6Gal-I [2] | Effect on forward sialylation activity of ST3Gal-II [3]
